Test results as given in patent US8822462B2, “Subunit selective NMDA receptor potentiators for the treatment of neurological conditions” (Emory University, priority 2009, dated 2014).

What was measured:
[1] = target: T1, NR1/NR2C (Homo sapiens, UniProt Q05586+Q14957); assay: Two electrode voltage clamp, Xenopus laevis oocytes expressing NR1/NR2C; format: cell-based; details: for IC50: fitted to composite concentration-effect data, read-out: 2C IC50; for Emax: maximal effect of fit, read-out: 2C Max; for activity at 100 µM: read-out: 2C percent effect at the maximum tested concentration
T1 construct: expressed in transfected cells; host or cells: Xenopus laevis oocytes
Excerpt: Values are mean+SEM (n=14-20). […] C is the closed level; broken line is the open level.
The Hill slope at both receptors for all analogues was greater than 1, consistent with a cooperative effect of binding at two sites.
(§1) In the table above, potency is expressed as fitted EC50 value to average composite concentration-effect data constructed from current responses recorded under two electrode voltage clamp from Xenopus laevis oocytes expressing either NR1/NR2A, B, C, or D, GluR1, or GluR6. No effect means less than 20% change in response amplitude at 30 μM of drug.

[2] = target: T2, NR1/NR2B (Homo sapiens, UniProt Q05586+Q13224); assay: Two electrode voltage clamp, Xenopus laevis oocytes expressing NR1/NR2B; format: cell-based; details: for IC50: fitted to composite concentration-effect data, Max 0 = inhibition, read-out: 2B IC50
T2 construct: expressed in transfected cells; host or cells: Xenopus laevis oocytes
Method: as §1

[3] = target: T3, NR1/NR2A (Homo sapiens, UniProt Q12879); assay: Two electrode voltage clamp, Xenopus laevis oocytes expressing NR1/NR2A; format: cell-based; details: read-out: 2A percent effect at the maximum tested concentration
T3 construct: expressed in transfected cells; host or cells: Xenopus laevis oocytes
Method: as §1

[4] = target: NR1/NR2D (Homo sapiens, UniProt O15399+Q05586); assay: Two electrode voltage clamp, Xenopus laevis oocytes expressing NR1/NR2D; details: for Emax: read-out: 2D Max; for activity at 100 µM: read-out: 2D percent effect at the maximum tested concentration, at 100 μM
[5] = read-out: 2B percent effect at the maximum tested concentration

T2 sequence (Q13224 27-1484, species assumed, other chains not shown): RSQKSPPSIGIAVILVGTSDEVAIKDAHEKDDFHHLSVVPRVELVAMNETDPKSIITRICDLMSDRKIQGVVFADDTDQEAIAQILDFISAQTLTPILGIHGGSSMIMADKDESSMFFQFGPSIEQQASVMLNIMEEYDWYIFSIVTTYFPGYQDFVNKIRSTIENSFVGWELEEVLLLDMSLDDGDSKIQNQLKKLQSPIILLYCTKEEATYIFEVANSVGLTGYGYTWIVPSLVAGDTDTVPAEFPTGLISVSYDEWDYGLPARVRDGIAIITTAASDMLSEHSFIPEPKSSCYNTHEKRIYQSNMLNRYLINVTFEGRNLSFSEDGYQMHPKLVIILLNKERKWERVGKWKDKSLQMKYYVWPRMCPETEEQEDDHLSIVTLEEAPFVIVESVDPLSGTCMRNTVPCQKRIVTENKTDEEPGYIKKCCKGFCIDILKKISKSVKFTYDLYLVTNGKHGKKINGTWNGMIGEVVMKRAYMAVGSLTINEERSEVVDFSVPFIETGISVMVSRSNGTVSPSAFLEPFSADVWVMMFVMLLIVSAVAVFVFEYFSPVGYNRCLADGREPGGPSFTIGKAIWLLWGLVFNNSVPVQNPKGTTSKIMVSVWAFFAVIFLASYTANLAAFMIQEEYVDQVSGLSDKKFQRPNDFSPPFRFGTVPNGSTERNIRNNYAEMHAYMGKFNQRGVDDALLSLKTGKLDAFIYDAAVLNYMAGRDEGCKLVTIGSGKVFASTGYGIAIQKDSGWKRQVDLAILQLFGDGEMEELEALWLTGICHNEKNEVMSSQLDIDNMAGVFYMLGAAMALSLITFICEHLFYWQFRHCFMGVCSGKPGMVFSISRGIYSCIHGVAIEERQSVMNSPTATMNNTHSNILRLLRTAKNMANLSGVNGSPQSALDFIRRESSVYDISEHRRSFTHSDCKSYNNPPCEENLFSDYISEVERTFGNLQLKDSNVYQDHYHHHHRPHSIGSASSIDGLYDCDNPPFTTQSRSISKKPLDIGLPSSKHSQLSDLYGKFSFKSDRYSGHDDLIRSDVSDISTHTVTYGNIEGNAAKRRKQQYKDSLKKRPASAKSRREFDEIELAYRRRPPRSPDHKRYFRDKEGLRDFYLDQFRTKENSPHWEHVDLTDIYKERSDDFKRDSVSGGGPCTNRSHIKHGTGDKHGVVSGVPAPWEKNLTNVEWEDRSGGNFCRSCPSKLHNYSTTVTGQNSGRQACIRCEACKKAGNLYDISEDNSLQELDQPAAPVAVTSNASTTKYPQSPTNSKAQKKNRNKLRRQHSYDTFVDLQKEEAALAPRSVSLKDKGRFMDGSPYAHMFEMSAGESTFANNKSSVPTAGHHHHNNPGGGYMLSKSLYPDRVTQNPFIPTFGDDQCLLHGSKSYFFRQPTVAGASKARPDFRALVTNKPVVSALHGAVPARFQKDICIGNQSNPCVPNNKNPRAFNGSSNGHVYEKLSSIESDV
T3 sequence (Q12879 23-1464, species assumed, other chains not shown): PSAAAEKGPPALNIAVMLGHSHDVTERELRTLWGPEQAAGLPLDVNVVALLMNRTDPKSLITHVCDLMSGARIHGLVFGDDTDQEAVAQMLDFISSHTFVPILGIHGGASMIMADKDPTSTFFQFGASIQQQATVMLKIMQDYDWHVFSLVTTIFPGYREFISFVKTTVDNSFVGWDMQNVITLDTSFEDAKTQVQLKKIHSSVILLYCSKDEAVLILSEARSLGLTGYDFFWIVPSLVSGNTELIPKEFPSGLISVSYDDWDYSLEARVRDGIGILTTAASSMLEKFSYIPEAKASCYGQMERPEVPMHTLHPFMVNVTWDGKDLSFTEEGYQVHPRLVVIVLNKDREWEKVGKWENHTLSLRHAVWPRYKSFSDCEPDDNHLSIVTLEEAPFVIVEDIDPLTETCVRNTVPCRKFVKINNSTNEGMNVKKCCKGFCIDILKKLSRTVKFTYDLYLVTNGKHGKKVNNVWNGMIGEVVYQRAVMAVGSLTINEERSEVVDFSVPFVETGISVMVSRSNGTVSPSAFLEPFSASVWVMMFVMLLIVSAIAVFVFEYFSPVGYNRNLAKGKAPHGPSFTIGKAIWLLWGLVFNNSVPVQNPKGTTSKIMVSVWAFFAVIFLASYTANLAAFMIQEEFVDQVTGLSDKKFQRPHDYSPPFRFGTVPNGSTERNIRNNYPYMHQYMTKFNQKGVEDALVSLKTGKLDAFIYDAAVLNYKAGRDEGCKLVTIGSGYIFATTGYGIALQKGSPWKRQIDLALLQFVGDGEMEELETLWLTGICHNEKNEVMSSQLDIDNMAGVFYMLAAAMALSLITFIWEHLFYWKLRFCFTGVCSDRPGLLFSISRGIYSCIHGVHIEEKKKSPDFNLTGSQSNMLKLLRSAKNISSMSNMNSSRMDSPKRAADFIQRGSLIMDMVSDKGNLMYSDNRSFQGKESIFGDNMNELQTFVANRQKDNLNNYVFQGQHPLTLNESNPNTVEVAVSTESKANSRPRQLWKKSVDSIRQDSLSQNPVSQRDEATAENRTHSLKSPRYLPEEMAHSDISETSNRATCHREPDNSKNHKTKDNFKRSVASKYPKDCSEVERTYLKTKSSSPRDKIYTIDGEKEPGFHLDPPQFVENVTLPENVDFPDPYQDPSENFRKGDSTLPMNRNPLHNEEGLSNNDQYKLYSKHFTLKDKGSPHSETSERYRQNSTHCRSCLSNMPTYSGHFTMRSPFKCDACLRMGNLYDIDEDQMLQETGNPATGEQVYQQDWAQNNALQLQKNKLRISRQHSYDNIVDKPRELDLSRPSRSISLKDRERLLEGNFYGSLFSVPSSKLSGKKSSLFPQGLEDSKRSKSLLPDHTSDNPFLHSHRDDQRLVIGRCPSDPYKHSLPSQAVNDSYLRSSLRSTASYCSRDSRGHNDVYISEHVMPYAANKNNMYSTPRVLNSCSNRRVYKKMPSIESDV
T1 sequence (Q14957 20-1233, species assumed, other chains not shown): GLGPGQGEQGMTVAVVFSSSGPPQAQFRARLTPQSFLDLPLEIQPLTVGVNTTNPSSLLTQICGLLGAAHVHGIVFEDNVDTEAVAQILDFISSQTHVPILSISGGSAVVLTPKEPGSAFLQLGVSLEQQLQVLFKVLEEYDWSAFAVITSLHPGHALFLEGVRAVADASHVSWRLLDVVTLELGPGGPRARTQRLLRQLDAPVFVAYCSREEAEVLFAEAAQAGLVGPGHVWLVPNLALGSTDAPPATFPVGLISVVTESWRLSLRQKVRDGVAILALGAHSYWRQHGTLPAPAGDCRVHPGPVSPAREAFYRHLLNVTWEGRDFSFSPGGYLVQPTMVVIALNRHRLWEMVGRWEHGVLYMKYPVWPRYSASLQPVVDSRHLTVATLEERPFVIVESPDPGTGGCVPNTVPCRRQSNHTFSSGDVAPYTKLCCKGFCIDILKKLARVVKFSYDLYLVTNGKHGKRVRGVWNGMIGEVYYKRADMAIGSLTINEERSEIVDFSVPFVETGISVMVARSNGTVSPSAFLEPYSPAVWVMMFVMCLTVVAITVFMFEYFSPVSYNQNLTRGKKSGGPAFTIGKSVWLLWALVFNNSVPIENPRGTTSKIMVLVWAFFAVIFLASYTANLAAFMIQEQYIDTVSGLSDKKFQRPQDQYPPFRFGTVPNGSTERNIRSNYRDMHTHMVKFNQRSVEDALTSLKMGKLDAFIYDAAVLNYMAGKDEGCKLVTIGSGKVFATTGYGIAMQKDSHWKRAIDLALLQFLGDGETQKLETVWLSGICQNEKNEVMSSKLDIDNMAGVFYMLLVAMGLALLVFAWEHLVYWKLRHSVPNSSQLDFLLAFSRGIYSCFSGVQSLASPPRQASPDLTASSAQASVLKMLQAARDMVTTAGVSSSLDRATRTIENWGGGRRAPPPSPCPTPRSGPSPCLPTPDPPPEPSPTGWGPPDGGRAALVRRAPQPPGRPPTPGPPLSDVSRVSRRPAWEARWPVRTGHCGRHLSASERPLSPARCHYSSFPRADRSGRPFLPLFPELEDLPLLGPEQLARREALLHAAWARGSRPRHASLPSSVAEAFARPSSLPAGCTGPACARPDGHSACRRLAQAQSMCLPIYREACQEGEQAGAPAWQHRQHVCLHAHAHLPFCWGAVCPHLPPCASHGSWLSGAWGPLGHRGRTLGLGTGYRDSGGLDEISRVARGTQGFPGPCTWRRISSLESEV

Row | activity at 100 µM [2, 5] [%] | activity at 100 µM [3] [%] | activity at 100 µM [1] [%] | activity at 100 µM [4] [%] | SMILES | IC50 [1] [µM] | Emax [1] [%] | IC50 [4] [µM] | Emax [4] [%] | also measured
1 | 94 | 88 | 104 | 86 | Cc1ccc(CSc2nccn2C(=O)c2ccc(C(C)(C)C)cc2)cc1 [compound 1403] | – | – | – | – | –
2 | 78 | 126 | 81 | 79 | COc1ccc(OCC2c3cc(OC)c(OC)cc3CCN2C(=O)c2cccc(O)c2)cc1 (stereo not drawn) [1180-3] | – | – | – | – | –
3 | 89 | 99 | 73 | 84 | COc1cc2c(cc1OC)C(COc1ccccc1OC)N(C(=O)c1cccc(Cl)c1)CC2 (stereo not drawn) [1180-8] | – | – | – | – | –
4 | 102 | 89 | 87 | 76 | Cc1ccnc(NC(=O)c2ccc(C(C)(C)C)cc2)c1 [compound 1398] | – | – | – | – | –
5 | – | – | – | – | COc1ccc(OCC2c3cc(OC)c(OC)cc3CCN2C(=O)c2cccc(I)c2)cc1 (stereo not drawn) [1180-11] | 31 | 431 | – | – | activity at 30 µM ([2]; at 30 μM, read-out: 2B percent effect at the maximum tested concentration): 82%; activity at 30 µM ([3]; at 30 μM): 84%; activity at 30 µM ([4]; read-out: 2D percent effect at the maximum tested concentration, at 30 μM): 111%
6 | 83 | 98 | 82 | 80 | CC(C)c1ccc(C(=O)Nc2sccc2C(=O)O)cc1 [compound 1488] | – | – | – | – | –
7 | 61 | 101 | 71 | 68 | COc1cc2c(cc1OC)C(COc1ccc(F)cc1)N(C(=O)c1cccc(F)c1)CC2 (stereo not drawn) [compound 1394] | – | – | – | – | –
8 | – | 95 | 79 | 58 | COc1cc2c(cc1OC)C(COc1ccc(OCc3ccccc3)cc1)N(C(=O)c1cccc(Cl)c1)CC2 (stereo not drawn) [1180-22] | – | – | – | – | activity at 20 µM ([2]; at 20 μM, read-out: 2B percent effect at the maximum tested concentration): 50%
9 | 97 | 94 | 102 | 113 | CC(C)(C)c1ccc(C(=O)Nc2ccccc2C(=O)O)cc1 [compound 1479] | – | – | – | – | –
10 | 97 | 87 | 109 | 99 | COc1cc2c(cc1OC)C(COc1ccc(OC(F)(F)F)cc1)N(C(=O)c1cccc(Cl)c1)CC2 (stereo not drawn) [1180-9] | – | – | – | – | –
11 | 90 | 123 | 71 | 82 | COc1ccc(NC(O)C2CN(C(C)C)C(=O)c3cc(OC)c(OC)cc32)c(OC)c1 (stereo not drawn) [compound 1440] | – | – | – | – | –
12 | 97 | 118 | 94 | 75 | COc1ccc(C(=O)Nc2sc(C)cc2C(=O)O)cc1 [compound 1420] | – | – | – | – | –
13 | 67 | 112 | 97 | 105 | COc1cc2c(cc1OC)C(COc1ccc(SC)cc1)N(C(=O)c1cccc(Cl)c1)CC2 (stereo not drawn) [1180-13] | – | – | – | – | –
14 | 90 | – | 95 | 83 | COc1ccc(OCC2c3cc(OC)c(OC)cc3CCN2Cc2ccccc2)cc1 (stereo not drawn) [1180-17] | – | – | – | – | activity at 20 µM ([3]; at 20 μM): 50%
15 | 85 | 114 | 77 | 87 | COc1ccc(NC(O)C2CN(C)C(=O)c3cc(OC)c(OC)cc32)c(OC)c1 (stereo not drawn) [compound 1438] | – | – | – | – | –
16 | 69 | 105 | 100 | 89 | COc1ccc(OCC2c3cc(OC)c(OC)cc3CCN2C(=O)c2ccco2)cc1 (stereo not drawn) [1180-4] | – | – | – | – | –
17 | 92 | 94 | 75 | 75 | COc1cccc(OCC2c3cc(OC)c(OC)cc3CCN2C(=O)c2ccccc2)c1 (stereo not drawn) [1180-7] | – | – | – | – | –
18 | 98 | 107 | 103 | 103 | CC(C)(C)c1ccc(C(=O)Nc2scc(-c3ccc(Br)cc3)c2C(=O)O)cc1 [compound 1435] | – | – | – | – | –

Row | SMILES | activity at 100 µM [2, 5] [%] | activity at 100 µM [3] [%] | activity at 100 µM [1] [%] | activity at 100 µM [4] [%] | IC50 [1] [µM] | Emax [1] [%] | IC50 [4] [µM] | Emax [4] [%] | also measured
19 | COc1ccc(OCC2c3cc(OC)c(OC)cc3CCN2C(=O)c2cccc([N+](=O)[O-])c2)cc1 (stereo not drawn) [1180-16] | 123 | 50 | – | – | 13 | 267 | 16 | 297 | –
20 | CCc1ccc(OCC2c3cc(OC)c(OC)cc3CCN2C(=O)c2ccccc2)cc1 (stereo not drawn) [compound 1366] | 97 | 98 | – | 108 | 3 | 121 | – | – | –
21 | COc1ccc(OCC2c3cc(OC)c(OC)cc3CCN2C(=O)c2cccs2)cc1 (stereo not drawn) [compound 1486] | 88 | 78 | – | – | 9 | 131 | 6 | 112 | –
22 | CSC1=NCCN1C(=O)c1ccc(C(C)(C)C)cc1 [compound 1343] | – | 115 | – | – | 139 | 303 | 210 | 480 | IC50 [2]: 138 µM
23 | CC(C)(C)c1ccc(C(=O)Nc2scc(-c3ccccc3)c2C(=O)O)cc1 [compound 1406] | – | 75 | – | – | 45 | 341 | 44 | 351 | IC50 [2]: 37 µM
24 | COc1ccc(OCC2c3c(cc(OC)cc3OC)CCN2C(=O)c2cccc(Cl)c2)cc1 (stereo not drawn) [1180-20] | 86 | 92 | – | – | 11 | 253 | 18 | 271 | –
25 | CC(C)(C)c1ccc(C(=O)Nc2sc3c(c2C(=O)O)CCCC3)cc1 [compound 1417] | 102 | 87 | – | – | 20 | 202 | 16 | 205 | –
26 | CCOc1ccc(-c2csc(NC(=O)c3ccc(C(C)(C)C)cc3)c2C(=O)O)cc1 [compound 1423] | – | 121 | – | – | 26 | 323 | 25 | 370 | IC50 [2]: 18 µM
27 | COc1ccc(OCC2c3ccc(OC)cc3CCN2C(=O)c2cccc(Cl)c2)cc1 (stereo not drawn) [1180-26] | 75 | 93 | – | – | 0.8 | 196 | 1 | 185 | –
28 | COc1ccc(OCC2c3cc(OC)c(OC)cc3CCN2C(=O)c2ccc(Cl)cc2)cc1 (stereo not drawn) [compound 1368] | 78 | 105 | – | – | 4 | 135 | 5 | 114 | –
29 | COc1ccc(OCC2c3c(cc(OC)cc3OC)CCN2C(=O)c2ccccc2)cc1 (stereo not drawn) [1180-19] | 100 | 63 | – | – | 10 | 160 | 9 | 150 | –
30 | COc1ccc(OCC2c3cc(OC)c(OC)cc3CCN2C(=O)c2cccc(Br)c2)cc1 (stereo not drawn) [compound 1391] | 74 | 119 | – | – | 1 | 195 | 2 | 188 | –
31 | COc1ccc(OCC2c3cc(OC)c(OC)cc3CCN2C(=O)c2cccc(Cl)c2)cc1 (stereo not drawn) [compound 1390] | 82 | 115 | – | – | 3 | 215 | 3 | 205 | –
32 | Cc1sc(NC(=O)c2ccc(C(C)(C)C)cc2)c(C(N)=O)c1C [compound 1433] | 98 | 97 | – | – | 51 | 134 | 34 | 150 | –
